Source: patent US20110306775A1, “SYNTHESIS AND BIOLOGICAL EVALUATION OF 2',5'-DIMETHOXYCHALCONE DERIVATIVES AS MICROTUBULE-TARGETED ANTICANCER AGENTS” (KAOHSIUNG MEDICAL UNIVERSITY, priority 2010, published 2011)
“Also recorded” adds a separate entry of the source. One block for each molecule: values may come before it.

Experiments:
[1] = system: NTUB1 cells; test: MTT cytotoxicity assay, NTUB1 cells; format: cell-based, human; conditions: for IC50: mean ± SD, n = 3-5
From the text: (§1) The cell lines of the present invention were an human urothelial carcinoma cell line (NTUB1), a human prostate cancer cell line (PC3), a human lung adenocarcinoma epithelial cell line (A549) and a SV-40 immortalized human uroepithelial cell line (SV-HUC1). However, the cell lines applied in the present invention includes but not limit in NTUB1, PC3, A549 and SV-HUC1 cells. Other cell lines having the same characteristics or not exactly the same characteristics are able to be used in the present invention. NTUB1, PC3 and A549 cells were maintained in RPMI 1640 and SV-HUC1 cells were maintained in F12 medium supplemented with 10% fetal bovine serum (FBS), 100 unit/mL penicillin-G, 100 μg/mL streptomycin and 2 mM glutamine. The cells were cultured at 37° C. in a humidified atmosphere containing 5% carbon dioxide.
(§2) The cytotoxic effect of compounds 1 to 18 of the present invention and cisplatin (positive control) on the cell lines was evaluated using 3-[4,5-dimethylthiazol-2-yl]-2,5-diphenyltetrazolium bromide (MTT) assay. Briefly, the cells were plated at a density of 1800 cells/well in 96-well plates and incubated in the presence of graded concentrations of compounds 1 to 18 and cisplatin at 37° C. for 72 hours. At the end of the culture period, 50 μL of MTT ([…] in PBS) was added to each well and allowed to react for 3 hours. Following centrifugation of plates at 1000 g for 10 minutes, media were removed and 150 μL dimethyl sulfoxide (DMSO) were added to each well. The proportions of surviving cells were determined by absorbance spectrometry at 540 nm. The cell viability was expressed as a percentage to the viable cells of control culture condition. The IC50 value of each group were calculated by the median-effect analysis and presented as mean±standard deviation (SD).

[2] = system: PC3 cells; test: MTT cytotoxicity assay, PC3 cells; format: cell-based, human; conditions: for IC50: mean ± SD, n = 3-5
From the text: as §1, §2

[3] = system: A549 cells; test: MTT cytotoxicity assay, A549 cells; format: cell-based, human; conditions: FIG. 1, compared with NTUB1 and PC3
From the text: as §1
(§3) The cytotoxic effect of compounds 1 to 18 of the present invention and cisplatin (positive control) on the cell lines was evaluated using 3-[4,5-dimethylthiazol-2-yl]-2,5-diphenyltetrazolium bromide (MTT) assay. […] The proportions of surviving cells were determined by absorbance spectrometry at 540 nm. The cell viability was expressed as a percentage to the viable cells of control culture condition. The IC50 value of each group were calculated by the median-effect analysis and presented as mean±standard deviation (SD).

[4] = system: SV-HUC1 cells; test: MTT cytotoxicity assay, SV-HUC1 cells; format: cell-based, human; conditions: FIG. 1, compared with NTUB1 and PC3
From the text: as §1, §3

[5] = system: NTUB1 cells; test: Cell cycle analysis (propidium iodide, flow cytometer), NTUB1 cells; format: cell-based, human; conditions: 24 hours, FIG. 2; for apoptotic cell death / cell cycle phase arrest: NTUB1, 1 μM; for cell cycle phase arrest: vs control
Procedure: (§4) DNA content was determined following propidium iodide (PI) staining of cells. Briefly, 6×10^5 cells were plated and treated with 20 μM cisplatin and various concentrations of compounds 11 and 15 for 24 hours, respectively. These cells were harvested by trypsinization, washed with 1×PBS, and fixed in ice-cold MeOH at −20° C. After overnight incubation, the cells were washed with PBS and incubated with 50 μg/mL propidium iodide and 50 μg/mL RNase A in PBS at room temperature for 30 minutes. The fractions of cells in each phase of cell cycle were analyzed using flow cytometer.

[6] = system: PC3 cells; test: Cell cycle analysis (propidium iodide, flow cytometer), PC3 cells; format: cell-based, human; conditions: FIG. 3; for apoptotic cells death: PC3, 0.3 μM; for apoptotic cells: PC3, 1 μM
Procedure: as §4

[7] = system: NTUB1 cells; test: Immuno-fluorescence staining of α-tubulin in NTUB1 cells; format: cell-based, human
Procedure: In brief, NTUB 1 cells were seeded onto serum-coated coverslides. The cells were fixed with 2% formaldehyde/PBS for 20 minutes followed by cold methanol permeabilization for 3 minutes. The cells were washed with 1×PBS five minutes twice. The cells were then incubated with α-tubulin primary antibody overnight. The cells were washed with 1×PBS five minutes thrice. Goat anti-rabbit-rhodamine secondary antibody and 1 μg/mL 4′-6-diamidino-2-phenylindole (DAPI) were incubated for 1 hour at room temperature. The slides were washed with 1×PBS, mounted with mounting solution (80% glycerol/PBS) and photographed by microscopy.

[8] = system: α-tubulin; test: Western blot analysis for α-tubulin (soluble vs assembled) in NTUB1 cells; format: cell-based, human; conditions: 6 hours, FIG. 4
Procedure: NTUB1 cells were seeded at a density of 1×10^6/[…] dishes and treated with indicated concentrations of test agents for 6 hours. The cells were then washed with cold PBS and lysed by adding lysis buffer (20 mM Tris-HCl (pH 6.8), 1 mM MgCl2, 2 mM EGTA (ethylene glycol tetraacetic acid), […] aprotinin, […], 1 mM phenylmethylsulfonyl fluoride, 1 mM orthovanadate, and 0.5% Nonidet P-40). The cell lysates were centrifuged at 15,000 g for 10 min at 4° C. Soluble and assembled tubulin could be separated in supernatant and pellet fraction, respectively. The supernatants and pellets were […] by the sodium dodecyl sulfate (SDS)-polyacrylamide gel electrophoresis assay. The relative amounts of tubulins transferred on the nitrocellulose membrane were detected by anti-tubulin monoclonal antibody and horseradish peroxidase (HRP)-conjugated secondary antibody. β-Actin was used for control. Detection of immunoreactive signal was accomplished with Western blot chemiluminescent reagent.

[9] = system: NTUB1 cells; test: Cell death and morphology of treated NTUB1 cells; format: cell-based, human; conditions: NTUB1, different concentrations, 24 hours, data not shown

Molecule: COc1ccc(OC)c(C(=O)C=Cc2ccc(C(=O)N3CCCC3)cc2)c1 [Compound 15, 4-tetrahydropyrrolylcarbamoyl-2′,5′-dimethoxychalcone]
cytotoxicity against NTUB1 cells (in words) [1]: significantly enhanced the cytotoxicity; also recorded: strongest cytotoxicity
IC50 ([1]; 72 hours): 1.26 ± 0.25 µM
cytotoxicity against PC3 cells (in words) [2]: significantly enhanced the cytotoxicity; also recorded: strongest cytotoxicity
IC50 ([2]; 72 hours): 0.53 µM
cytotoxicity against A549 cells (in words) [3]: more potent cytotoxic effect against NTUB1 and PC3 cells than that of A549 cells; also recorded: less cytotoxicity
cytotoxicity against human normal uroepithelial SV-HUC1 cells (in words) [4]: less cytotoxicity against human normal uroepithelial SV-HUC1 cells than those of NTUB1 and PC3 cells lines
apoptotic cell death [5]: increase in apoptotic cell death
cell cycle phase arrest [5]: induced G1 phase arrest
apoptotic cells death [6]: increase of the apoptotic cells death
apoptotic cells [6]: increase of apoptotic cells
cells arrested at mitosis ([7]; NTUB1, 1 μM, data not shown): induced more NTUB1 cells arrested at mitosis
microtubule bundle formation ([7]; NTUB1, immuno-fluorescent microscopy, mimicked the effect of paclitaxel): induced the microtubule bundle formation
α-tubulin level in the pellet (assembled) ([8]; NTUB1, various concentrations): increased in a dose-dependent manner
α-tubulin level in the supernatant (soluble) ([8]; NTUB1, various concentrations): decreased level in a dose-dependent manner
cell death and cell shape after treatment [9]: more cell death and rounding up

melting point: 213 to 214 °C
Molecule: CCNC(=O)c1ccc(/C=C/C(=O)c2cc(OC)ccc2OC)cc1 [Compound 9, 4-ethylcarbamoyl-2′,5′-dimethoxychalcone]
IC50 ([1]; Homo sapiens, NTUB1, 72 hours): 3.76 ± 0.4 µM
IC50 ([2]; Homo sapiens, PC-3, 72 hours): 4.18 ± 0.23 µM

Molecule: COc1ccc(OC)c(C(=O)/C=C/c2ccc(C(=O)OC(C)C)cc2)c1 [Compound 5, 4-isopropoxycarbonyl-2′,5′-dimethoxychalcone]
IC50 ([1]; Homo sapiens, NTUB1, 72 hours): 4.42 ± 0.5 µM
IC50 ([2]; Homo sapiens, PC-3, 72 hours): 6.74 ± 1.34 µM

Molecule: COc1ccc(OC)c(C(=O)/C=C/c2ccc(C(=O)OCc3ccccc3)cc2)c1 [Compound 6, 4-benzyloxycarbonyl-2′,5′-dimethoxychalcone]
IC50 ([1]; Homo sapiens, NTUB1, 72 hours): 13.3 ± 2.86 µM
IC50 ([2]; Homo sapiens, PC-3, 72 hours): 17.9 ± 0.5 µM

Molecule: COc1ccc(OC)c(C(=O)/C=C/c2ccc(C(=O)N(C)C)cc2)c1 [Compound 12, 4-dimethylcarbamoyl-2′,5′-dimethoxychalcone]
IC50 ([1]; Homo sapiens, NTUB1, 72 hours): 3.89 ± 0.21 µM
IC50 ([2]; Homo sapiens, PC-3, 72 hours): 4.58 ± 1.05 µM

Molecule: CCCOC(=O)c1ccc(C=CC(=O)c2cc(OC)ccc2OC)cc1 [Compound 4, propoxycarbonyl-2′,5′-dimethoxychalcone]
IC50 ([1]; 72 hours): 6.01 ± 0.3 µM
IC50 ([2]; 72 hours): 26.9 µM

melting point: 214 to 215 °C
Molecule: COc1ccc(OC)c(C(=O)/C=C/c2ccc(C(=O)O)cc2)c1 [Compound 1, 4-carboxyl-2′,5′-dimethoxychalcone]
cytotoxicity against NTUB1 cells (in words) [1]: significantly cytotoxic activities
IC50 ([1]; Homo sapiens, NTUB1, 72 hours): 5.7 ± 0.68 µM
IC50 ([2]; Homo sapiens, PC-3, 72 hours): 7.24 ± 0.58 µM

melting point: 237 to 238 °C
Molecule: COc1ccc(OC)c(C(=O)/C=C/c2ccc(C(=O)O)s2)c1 [Compound 18]
cytotoxicity against NTUB1 cells (in words) [1]: no significant cytotoxicity
IC50 ([1]; Homo sapiens, NTUB1, 72 hours): > 50 µM

Molecule: COc1ccc(OC)c(C(=O)/C=C/c2ccc(C(=O)OCC=C(C)C)cc2)c1 [Compound 7, 4-(3-methyl-but-2-enyloxycarbonyl)-2′,5′-dimethoxychalcone]
IC50 ([1]; Homo sapiens, NTUB1, 72 hours): 13.4 ± 0.78 µM
IC50 ([2]; Homo sapiens, PC-3, 72 hours): > 50 µM

Molecule: CCN(CC)C(=O)c1ccc(/C=C/C(=O)c2cc(OC)ccc2OC)cc1 [Compound 14, 4-diethylcarbamoyl-2′,5′-dimethoxychalcone]
IC50 ([1]; Homo sapiens, NTUB1, 72 hours): 2.69 ± 0.47 µM
IC50 ([2]; Homo sapiens, PC-3, 72 hours): 3.79 ± 0.56 µM

Molecule: CC(=O)O[C@H]1C(=O)[C@@]2(C)[C@H]([C@H](OC(=O)c3ccccc3)[C@]3(O)C[C@H](OC(=O)[C@H](O)[C@@H](NC(=O)c4ccccc4)c4ccccc4)C(C)=C1C3(C)C)[C@]1(OC(C)=O)CO[C@@H]1C[C@@H]2O [Paclitaxel, paclitaxel, reference compound]
tubulin assembly ([8]; NTUB1, 500 nM): stabilized the tubulin assembly

Molecule: CCCNC(=O)c1ccc(/C=C/C(=O)c2cc(OC)ccc2OC)cc1 [Compound 10, 4-propylcarbamoyl-2′,5′-dimethoxychalcone]
cytotoxicity against NTUB1 cells (in words) [1]: significantly enhanced the cytotoxicity
IC50 ([1]; Homo sapiens, NTUB1, 72 hours): 2.26 ± 0.31 µM
cytotoxicity against PC3 cells (in words) [2]: significantly enhanced the cytotoxicity
IC50 ([2]; Homo sapiens, PC-3, 72 hours): 1.5 ± 0.22 µM

melting point: 118 to 119 °C
Molecule: CCOC(=O)c1ccc(/C=C/C(=O)c2cc(OC)ccc2OC)cc1 (hydrate or solvate) [Compound 3, 4-ethoxycarbonyl-2′,5′-dimethoxychalcone]

Molecule: COc1ccc(OC)c(C(=O)C=Cc2ccc(C(=O)N(C)CCO)cc2)c1 [Compound 16, 4-(2-hydroxyethyl)methyl-carbamoyl-2′,5′-dimethoxychalcone]
IC50 ([1]; 72 hours): 4.42 ± 0.15 µM
IC50 ([2]; 72 hours): 5.75 ± 1.27 µM

Molecule: COc1ccc(OC)c(C(C=Cc2ccc(C(=O)NC3CC3)cc2)=NC2CC2)c1 [Compound 17, N-cyclopropyl-4-[3-cyclopropylimino-3-(2′,5′-dimethoxy-phenyl)-propenyl]-benzamide]
IC50 ([1]; 72 hours): 3.57 ± 0.47 µM
IC50 ([2]; 72 hours): 4.26 ± 0.81 µM

Molecule: CCOC(=O)c1ccc(/C=C/C(=O)c2cc(OC)ccc2OC)cc1 [Compound 3, 4-ethoxycarbonyl-2′,5′-dimethoxychalcone]
IC50 ([1]; Homo sapiens, NTUB1, 72 hours): 4.49 ± 0.98 µM
IC50 ([2]; Homo sapiens, PC-3, 72 hours): 5.7 ± 0.43 µM

melting point: 118 to 119 °C
Molecule: COC(=O)c1ccc(/C=C/C(=O)c2cc(OC)ccc2OC)cc1 [Compound 2, 4-methoxycarbonyl-2′,5′-dimethoxychalcone]
IC50 ([1]; Homo sapiens, NTUB1, 72 hours): 3.51 ± 0.45 µM
IC50 ([2]; Homo sapiens, PC-3, 72 hours): 4.85 ± 0.11 µM

melting point: 280 to 281 °C
Molecule: COc1ccc(OC)c(C(=O)/C=C/c2ccc(C(=O)NC3CCCCC3)cc2)c1 [Compound 13, 4-cyclohexylcarbamoyl-2′,5′-dimethoxychalcone]
IC50 ([1]; Homo sapiens, NTUB1, 72 hours): 2.25 ± 0.57 µM
IC50 ([2]; Homo sapiens, PC-3, 72 hours): 6.3 ± 0.59 µM

Molecule: N.N.[Cl][Pt][Cl] [Cisplatin, cisplatin, reference compound]
IC50 ([1]; 72 hours): 3.27 ± 0.1 µM
IC50 ([2]; 72 hours): 4.56 ± 0.76 µM
cell cycle distribution ([5]; NTUB1, 20 μM): accumulation of cells in G1 and S phases
sub-G1 population ([5]; NTUB1, 20 μM): increase of the population of sub-G1 phase
apoptotic cell death ([6]; PC3, 20 μM, 24 hours): increase of apoptotic cell death
cell cycle distribution ([6]; PC3, 20 μM, 24 hours): accumulation of cells in S phase

melting point: 217 to 218 °C
Molecule: CNC(=O)c1ccc(/C=C/C(=O)c2cc(OC)ccc2OC)cc1 [Compound 8, 4-methylcarbamoyl-2′,5′-dimethoxychalcone]
IC50 ([1]; Homo sapiens, NTUB1, 72 hours): 2.2 ± 0.37 µM
IC50 ([2]; Homo sapiens, PC-3, 72 hours): 2.13 ± 0.21 µM

Molecule: 4-(2-methylethyl)carbamoyl-2′,5′-dimethoxychalcone [Compound 11]
cytotoxicity against NTUB1 cells (in words) [1]: significantly enhanced the cytotoxicity
IC50 ([1]; 72 hours): 1.97 ± 0.39 µM
cytotoxicity against PC3 cells (in words) [2]: significantly enhanced the cytotoxicity
IC50 ([2]; 72 hours): 1.58 ± 0.08 µM
apoptotic cell death [5]: increase in apoptotic cell death
cell cycle phase arrest [5]: induced G1 phase arrest
apoptotic cells death [6]: increase of the apoptotic cells death
apoptotic cells [6]: increase of apoptotic cells
